Source: patent US9752175B2, “Systems and methods to detect biofilm streamer growth and their uses” (The Trustees of Princeton University, priority 2014, dated 2017)

Test system: Pseudomonas aeruginosa PA14
Test: Microfluidic pressure-driven flow assay (biofilm streamer clogging)
Type: cell-based
Conditions: low concentration of tetracycline; microfluidic channel
Experimental: Overnight P. aeruginosa cultures were backdiluted 1:100 in tryptone broth and grown to midlogarithmic phase (OD600=0.5). This culture (100 mL) was used to fill a reservoir connected via Tygon tubing (inner diameter 2.4 mm) to a microfluidic channel made from polydimethylsiloxane (PDMS) (Sylgard 184, Dow Corning). The channels (FIG. 1A) are 90 μm high, 200 μm wide, and constitute the narrowest part of the experimental flow system. Analogous to the inlet, the outlet of the microfluidic channel is also connected to Tygon tubing, and the effluent culture is collected in a dish on an analytical balance. By changing the elevation of the culture reservoir above the effluent collection dish, the applied pressure difference Δp is altered, which alters the flow rate through the channel. Operating this system for 24 h with H2O at a flow rate of 15.7±0.05 μL/min reduced the liquid level in the reservoir to decrease the pressure drop across the channel by 2.1%. […]
The weight of the effluent culture was measured every 4 s on an analytical balance (GD503, Sartorius), controlled with LabVIEW. […]
where the density was assumed to be the density of water, 1 kg/L. T and τ were calculated by fitting the function
[formula] to the measured flow rate Q(t), where Q0 is the flow rate before the clogging transition. […]

CN(C)[C@@H]1C(O)=C(C(N)=O)C(=O)[C@@]2(O)C(O)=C3C(=O)c4c(O)cccc4[C@@](C)(O)[C@H]3C[C@@H]12 [tetracycline]
duration of the clogging transition (τ): no effect
